Reference: patent US11814680B2, “Biomarkers for detecting senescent cells” (Universität für Bodenkultur Wien, priority 2017, dated 2023)
Marks after values point to notes of the source that are not given here.

Legend:
[1] = test system: p16-3MR mice; assay: RT-qPCR verification of serum circulating microRNA changes, one-way ANOVA; format: in vivo, mouse; conditions: for One-way ANOVA Senolytic Treatment (DOX/GCV) / One-way ANOVA Senescence (DOX vs PBS): serum; for One-way ANOVA Senolytic Treatment (DOX/GCV): DOX/GCV compared to DOX; for One-way ANOVA Senescence (DOX vs PBS): n=8 per group, male and female mice; for change of serum level following senolytic treatment (DOX/GCV compared to DOX): p<0.05, in words
Procedure: p16-3MR (Demaria et al, 2014, Developmental Cell 31:722-733) mice were bred in house and maintained in the AALAC-accredited Buck Institute for Research on Aging (Novato, Calif.) animal facility. 10 to 12-week-old p16-3MR […] mice were used for experiments. Mice were divided in 4 groups and each group consisted of 8 animals, 5 female, and 3 male, respectively. In group A, control mice were injected with PBS. In group B, mice were treated with Ganciclovir (GCV) (Sigma-Aldrich) dissolved in PBS for 5 consecutive days. In group C, mice were treated with one dose of Doxorubicine hydrochloride (Sigma-Aldrich) dissolved in PBS. In group D, mice were first treated with Doxorubicine and then treated 10 days later with GCV. Mice were intraperitoneally injected with one dose of 10 mg/kg of Doxorubicine hydrochloride, and GCV was administered daily by intraperitoneal injections for 5 consecutive days at concentration of 25 mg/kg in PBS. 4 days after the last GCV dose, animals were euthanized with CO2 and blood was withdrawn immediately. Blood was then incubated for 30 min at room temperature and centrifuged at 3400×g for 10 min. Serum was carefully collected in a sterile tube without disturbing the cell pellet and stored at −80° C. for further experiments.
Total RNA extraction was performed from 200 μl of serum using the Qiagen miRNeasy extraction kit (Qiagen, Germany). RNA yield was quality checked for homogenous extraction efficiency and hemolysis on the basis qPCR amplification of spiked-in as well as hemolysis-responsive RNAs (Blondal et al). In total 2 μl total RNA were used for reverse transcription using the Exiqon Universal RT kit II (Exiqon, Denmark). The obtained cDNA samples were pre-diluted 1:40 and subsequently mixed with SYBR Green® Mix (Exiqon, Denmark) to achieve a 1:100 dilution. The mix was distributed to primer-coated 384-well plates containing dried primer pairs for 96 selected microRNA or quality control assays. QPCR amplification was performed on a Roche LightCycler 480 II, using the manufacturer's recommendation for annealing, extension and denaturation.
Raw Cq-values were computed using the 2nd derivative method. Melting curves were checked for peaks to ensure specificity of the amplification reactions. Cq-values were subsequently normalized using Spike-In controls as references, to reduce technical noise in the data.
(§1) Statistical analysis was performed using Medcalc (version 18.2.1). Normal distribution was assessed using D'Agostino-Pearson test, where normality was accepted at p>0.05. One-way ANOVA together together with Student-Newman-Keuls test for all pairwise comparisons (post-hoc tests) was used to identify significant changes between groups (p<0.05). To assess the discriminatory power of individual microRNAs, receiver operating characteristic (ROC) analysis was applied. ROC curves were plotted using sensitivity (y-axis) and 1-specificity (x-axis) and the area under the ROC curve (AUC) was calculated. MicroRNAs with AUC-values of >0.7 were considered as good discriminators/biomarkers. MicroRNAs with AUC-values >0.8 were considered very good discriminators/biomarkers.

[2] = test system: p16-3MR mice; assay: ROC analysis of discriminatory power of circulating microRNAs; format: in vivo, mouse; conditions: serum, RT-qPCR, symbol after the number = significance; for ROC Analysis AUC Senescence: DOX vs PBS; for ROC Analysis AUC Senolytic Treatment: DOX/GCV vs DOX
Procedure: as §1
In order to assess the diagnostic power of circulating microRNAs for the exposure with senescence inducing substances (DOX) as well as the efficacy of senolytic treatment, ROC analysis was performed and the area-under-the-curve (AUC) was calculated. […] Table 23 below summarizes AUC values as well as 95% confidence intervals for 24 selected circulating microRNAs.

[3] = test system: p16-3MR mice; assay: Pearson correlation of serum miRNA levels to miR-34a-5p and miR-27a-3p; set-up: species or system mouse; conditions: for Pearson Correlcation coefficient miR44a-5p: correlation of serum level to miR44a-5p (so in the source); for Pearson Correlcation coefficient miR-27a-3p: correlation of serum level to miR-27a-3p
Excerpt: In order to extend these finding to potential additional miRNAs, we performed Pearson correlation to miR-34a-5p and miR-27a-3p, resulting in additional potential biomarkers (Table 18).

Substance | regulation in serum after exposure to DOX compared to PBS ([1]; independent of gender, in words) | One-way ANOVA Senolytic Treatment (DOX/GCV) [1] | One-way ANOVA Senescence (DOX vs PBS) [1] | ROC Analysis AUC Senescence [2] | ROC Analysis AUC Senolytic Treatment [2] | change of serum level following senolytic treatment (DOX/GCV compared to DOX) [1] | Pearson Correlcation coefficient miR44a-5p [3] | Pearson Correlcation coefficient miR-27a-3p [3]
miR-345-5p: circulating microRNA biomarker, SEQ ID No. 83 (GCUGACUCCUAGUCCAGGGCUC; expressed or natural sequence; listed as Homo sapiens) | significantly (up- or down-regulated) | * (significant p < 0.05) | * (significant p < 0.05) | 0.781* | 0.875* |  |  | 
miR-375-5p: circulating microRNA biomarker, SEQ ID No. 88 (UUUGUUCGUUCGGCUCGCGUGA; expressed or natural sequence; listed as Homo sapiens) |  | * (significant p < 0.05) | ○ | 0.570° | 0.859* | significantly changed |  | 
miR-409-3p: circulating microRNA biomarker, SEQ ID No. 89 (GAAUGUUGCUCGGUGAACCCCU; expressed or natural sequence; listed as Homo sapiens) |  | * (significant p < 0.05) | ○ | 0.609° | 0.859* | significantly changed |  | 
miR-483-5p: circulating microRNA biomarker, SEQ ID No. 91 (AAGACGGGAGGAAAGAAGGGAG; expressed or natural sequence; listed as Homo sapiens) |  | * (significant p < 0.05) | ○ | 0.563° | 0.766* | significantly changed |  | 
mmu-miR-10a-3p: circulating microRNA, SEQ ID No. 16 (CAAAUUCGUAUCUAGGGGAAUA; expressed or natural sequence; listed as Homo sapiens) |  |  |  |  |  |  | 0.52 | 0.90
mmu-miR-29a-3p: circulating microRNA, SEQ ID No. 22 (UAGCACCAUCUGAAAUCGGUUA; expressed or natural sequence; listed as Homo sapiens) |  |  |  |  |  |  | 0.74 | 0.74
mmu-miR-30b-5p: circulating microRNA, SEQ ID No. 9 (UGUAAACAUCCUACACUCAGCU; expressed or natural sequence; listed as Homo sapiens) |  |  |  |  |  |  | 0.70 | 0.65
mmu-miR-191-5p: circulating microRNA, SEQ ID No. 18 (CAACGGAAUCCCAAAAGCAGCUG; expressed or natural sequence; listed as Homo sapiens) |  |  |  |  |  |  | 0.32 | 0.81
mmu-miR-223-3p: circulating microRNA, SEQ ID No. 19 (UGUCAGUUUGUCAAAUACCCCA; expressed or natural sequence; listed as Homo sapiens) |  |  |  |  |  |  | 0.55 | 0.83
